Read-outs that look alike come from different tables or passages of the source. Bridge positions count the residues as written; N and C are the ends. Square brackets hold non-standard residues; d marks the D form. Peptide text beside a SMILES is read from it. * marks the point of attachment. Ileψ(thiazoline)Cys = CC[C@H](C)[C@H](N)C1=N[C@H](C(=O)*)CS1; dOrn = NCCC[C@@H](N)C(=O)O

In data set [1] the test system is B. atropheus spores, Pseudomonas aeruginosa, and Staphylococcus aureus. Briefly: Bacterial suspension assay, test organisms overall. Type of data set: cell-based. The note with it: 33 Units/ml; over the time periods tested. The procedure:
Dermacyn is a ready to use product, therefore performing dilutions during testing was not required.
A purchased spore suspension of B. atropheus at 2.5×10^7/ml was used for testing. In addition fresh suspensions of Pseudomonas aeruginosa, and Staphylococcus aureus were prepared and measured using a spectrophotometer to ensure the titer was acceptable
Nine microliters of test substance was added to 100 ul of microbe suspension. The test mixture was held at 20° C. for the contact times of 20 seconds, 5 minutes, and 20 minutes. […] (entire mixture) was added to 9.0 ml of neutralizer for 20 minutes (this is the original neutralization tube or ONT) 1.0 ml of the neutralized test mixture was plated on Tryptic Soy Agar in duplicate for the 5 minute and 20 minute contact times. Additional dilutions and spread plates were used for the 20 second time point, to achieve countable plates.
All plates were incubated at 30° C.-35° C. for a total of 3 days and were evaluated after each day of incubation.

Data set [2] concerns murine polychromatic erythrocytes.
From the text: The mammalian in vivo micronucleus test is used for the identification of substances which cause damage to chromosomes or the mitotic apparatus of murine polychromatic erythrocytes. This damage results in the formation of “micronuclei,” intracellular structures containing lagging chromosome fragments or isolated whole chromosomes. […] All mice were observed immediately after injection for any adverse reactions. […] On day 3, all mice were weighed and terminated.
The femurs were excised from the terminated mice, the bone marrow was extracted, and duplicate smear preparations were performed for each mouse. The bone marrow slides for each animal were read at 40× magnification. The ratio of polychromatic erythrocytes (PCE) to normochromatic erythrocytes (NCE), an index of bone marrow toxicity, was determined for each mouse by counting a total of at least 200 erythrocytes. Then a minimum of 2000 scoreable PCE per mouse were evaluated for the incidence of micronucleated polychromatic erythrocytes. Statistical analysis of the data were done using the Mann and Whitney test (at 5% risk threshold) from a statistical software package (Statview 5.0®, SAS Institute Inc., USA).
Data set [3] relates to human diploid fibroblasts (HDFs). Briefly: Cell viability, apoptosis and necrosis by flow cytometry. It counts as cell-based. The note with it: 880 mM. As for the experimental part: HP is known to be toxic to eukaryotic cells, increasing apoptosis and necrosis and reducing cellular viability. […] HDF cultures were obtained from three different foreskins, which were pooled and cryopreserved together for the purpose of this study. Only diploid cells were used for all experiments. […] Simultaneous analyses of these parameters were performed in the same cell populations by flow cytometry using: […] B) Annexin V-FITC; and C) Propidium iodide. FIG. 4A-4C disclose percentage values expressed as mean±SD (n=3).

For data set [4] the test system is unchanged. The following applies: 30 min, 500 μM.

As for `CC[C@H](C)[C@H](N)C1=N[C@H](C(=O)N[C@@H](CC(C)C)C(=O)N[C@H](CCC(=O)O)C(=O)N[C@H](C(=O)N[C@H]2CCCCNC(=O)[C@H](CC(N)=O)NC(=O)[C@@H](CC(=O)O)NC(=O)[C@H](Cc3cnc[nH]3)NC(=O)[C@@H](Cc3ccccc3)NC(=O)[C@H]([C@@H](C)CC)NC(=O)[C@@H](CCCN)NC2=O)[C@@H](C)CC)CS1` [Bacitracin] ({Ileψ(thiazoline)Cys}-L[dE]IK[dOrn]I[dF]H[dD]N; lactam 4-C), in data set [1], the “lowering of bacterial or spore populations” value is recorded as “no evidence of lowering the bacterial or spore populations”.
For the compound `O=P1(N(CCCl)CCCl)NCCCO1` (centres unmarked) [cyclophosphamide], the PCE/NCE ratio in data set [2] (females, negative controls 1.02) came to 0.73; in data set [2] (males, negative controls 0.90), 0.77. The “number of polychromatic erythrocytes bearing micronuclei” value in data set [2] (males, negative controls 0.6) is reported as 11.0.
With `OO` [HP, hydrogen peroxide], in data set [3] (5 min), the “Cell viability (7AAD)” value turned out to be 55% and the “necrosis, cells incorporating propidium iodide” value came out at 20%. In data set [3] (30 min), the “Cell viability (7AAD)” value came out at 5% and the “necrosis, cells incorporating propidium iodide” value came out at 75%. The “increase in number of 8-OHdG adducts relative to control-treated or ORP water solution-treated cells” value in data set [4] is recorded as “about 25 fold”. In addition, in the data set with human cell cultures, the “GAPDH RT-PCR product” value is on record as “little if any GAPDH RT-PCR product” and the “RNA degradation, denaturing gel electrophoresis” value is listed as “significant RNA degradation”.

(Values after patent US9782434B2, “Methods of treating or preventing inflammation and hypersensitivity with oxidative reductive potential water solution” (Oculus Innovative Sciences, Inc., priority 2006, dated 2017).)
